# Activity calls are given as the source filed them. No cut-off for these calls is given here.
# Key:
# [1] = target: 5-hydroxytryptamine receptor 6 (Homo sapiens, UniProt P50406); assay: Antagonist activity at human 5HT6 receptor in HEK293 cells assessed as inhibition of serotonin-induced cAMP accumulation pretreated for 15 mins before serotonin challenge measured after 30 mins; assay type: functional, cell-based
# [2] = target: T1, 5-hydroxytryptamine receptor 2B (Homo sapiens, UniProt P41595); assay: Agonist activity at human 5HT2B receptor in HEK293 cells assessed as stimulation of intracellular calcium mobilization by Fura-2AM dye based spectrofluorimetry
# [3] = target: T1, 5-hydroxytryptamine receptor 2B; assay: Antagonist activity at human 5HT2B receptor in HEK293 cells assessed as inhibition of alpha-ME-5-HT-induced intracellular calcium mobilization pretreated for 15 secs before alphaME-5-HT addition by Fura-2AM dye based spectrofluorimetry
# hERG (KCNH2) = hERG (KCNH2) (Homo sapiens, UniProt Q12809); assay: Inhibition of human recombinant ERG at 10 uM by patch clamp assay; details: recombinant human ERG channel
# Sequence of hERG (KCNH2) (Q12809 whole entry): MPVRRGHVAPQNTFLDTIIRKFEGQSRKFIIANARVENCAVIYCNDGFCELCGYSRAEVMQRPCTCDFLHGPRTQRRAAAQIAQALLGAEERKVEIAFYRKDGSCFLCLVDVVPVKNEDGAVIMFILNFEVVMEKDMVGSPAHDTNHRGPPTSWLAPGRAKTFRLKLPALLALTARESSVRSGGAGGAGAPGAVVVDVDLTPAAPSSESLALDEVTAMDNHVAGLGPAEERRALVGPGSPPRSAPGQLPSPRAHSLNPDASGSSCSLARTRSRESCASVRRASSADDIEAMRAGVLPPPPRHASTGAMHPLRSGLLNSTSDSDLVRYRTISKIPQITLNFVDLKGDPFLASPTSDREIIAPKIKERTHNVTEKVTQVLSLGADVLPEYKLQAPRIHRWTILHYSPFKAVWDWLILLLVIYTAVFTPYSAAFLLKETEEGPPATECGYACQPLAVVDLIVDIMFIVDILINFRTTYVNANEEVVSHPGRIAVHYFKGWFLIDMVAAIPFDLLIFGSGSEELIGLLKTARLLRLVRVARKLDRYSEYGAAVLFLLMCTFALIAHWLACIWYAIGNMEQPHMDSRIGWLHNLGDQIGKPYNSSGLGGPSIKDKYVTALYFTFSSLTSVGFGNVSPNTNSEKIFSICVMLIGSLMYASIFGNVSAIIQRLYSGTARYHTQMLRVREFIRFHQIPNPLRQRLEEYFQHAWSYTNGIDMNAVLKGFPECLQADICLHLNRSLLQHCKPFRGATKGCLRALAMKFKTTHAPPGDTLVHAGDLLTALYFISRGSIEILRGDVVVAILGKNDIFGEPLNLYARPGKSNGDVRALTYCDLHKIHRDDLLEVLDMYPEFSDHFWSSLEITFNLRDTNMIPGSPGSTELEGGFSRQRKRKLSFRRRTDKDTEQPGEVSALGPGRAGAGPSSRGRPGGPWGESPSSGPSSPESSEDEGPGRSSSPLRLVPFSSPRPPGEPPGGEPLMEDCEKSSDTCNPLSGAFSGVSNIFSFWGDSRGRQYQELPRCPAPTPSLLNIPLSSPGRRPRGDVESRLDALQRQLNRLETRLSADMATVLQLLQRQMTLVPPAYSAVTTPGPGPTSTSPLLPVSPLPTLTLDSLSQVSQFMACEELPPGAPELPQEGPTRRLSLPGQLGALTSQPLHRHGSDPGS
# T1 sequence (P41595 whole entry): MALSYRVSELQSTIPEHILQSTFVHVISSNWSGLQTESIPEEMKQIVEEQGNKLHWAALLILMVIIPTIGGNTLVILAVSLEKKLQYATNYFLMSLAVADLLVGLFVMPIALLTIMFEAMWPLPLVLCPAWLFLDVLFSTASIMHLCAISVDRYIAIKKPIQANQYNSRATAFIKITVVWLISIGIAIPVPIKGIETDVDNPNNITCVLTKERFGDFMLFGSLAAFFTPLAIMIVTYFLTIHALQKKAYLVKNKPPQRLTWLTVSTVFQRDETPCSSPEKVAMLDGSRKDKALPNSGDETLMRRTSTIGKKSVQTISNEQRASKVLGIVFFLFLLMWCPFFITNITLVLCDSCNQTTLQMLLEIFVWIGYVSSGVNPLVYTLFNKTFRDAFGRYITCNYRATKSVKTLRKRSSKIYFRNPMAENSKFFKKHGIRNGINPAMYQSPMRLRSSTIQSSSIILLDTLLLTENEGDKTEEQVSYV
# Sequence of 5-hydroxytryptamine receptor 6 (P50406 whole entry): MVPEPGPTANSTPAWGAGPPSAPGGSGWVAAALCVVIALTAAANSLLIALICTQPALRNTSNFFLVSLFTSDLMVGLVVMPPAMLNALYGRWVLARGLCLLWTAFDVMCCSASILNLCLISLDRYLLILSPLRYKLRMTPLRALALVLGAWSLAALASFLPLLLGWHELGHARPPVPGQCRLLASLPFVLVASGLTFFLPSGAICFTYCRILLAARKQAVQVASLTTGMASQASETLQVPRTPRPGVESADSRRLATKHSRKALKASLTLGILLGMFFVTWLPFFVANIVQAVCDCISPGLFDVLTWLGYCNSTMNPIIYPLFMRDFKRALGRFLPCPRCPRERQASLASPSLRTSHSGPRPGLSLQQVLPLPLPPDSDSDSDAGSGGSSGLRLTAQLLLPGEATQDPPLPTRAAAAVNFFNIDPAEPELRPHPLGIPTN
IC50 [1],Activity [2],IC50 [3],Compound,inhibition at 10 µM (hERG (KCNH2))
16.8 nM,inactive,161 nM,CSc1nn2c3c(c(C)nc2c1S(=O)(=O)c1ccccc1)CCCC3,–
7.5 nM,inactive,411 nM,CSc1nn2c3c(cnc2c1S(=O)(=O)c1ccccc1)CCCC3,–

# The next lines start with the compound.
Compound,IC50 [1],Activity [2],IC50 [3],inhibition at 10 µM (hERG (KCNH2))
CSc1nn2c3c(cnc2c1S(=O)(=O)c1ccccc1)CCC3,6 nM,inactive,118 nM,–
CSc1nn2cc3c(nc2c1S(=O)(=O)c1ccccc1)CCCC3,98.5 nM,–,–,–
CSc1nn2c(C)c3c(nc2c1S(=O)(=O)c1ccccc1)CCCC3,–,inactive,127 nM,25%

# Source: ChEMBL document CHEMBL1156328, “Synthesis of cycloalkane-annelated 3-phenylsulfonyl-pyrazolo[1,5-a]pyrimidines and their evaluation as 5-HT6 receptor antagonists” (Bioorg Med Chem Lett, 2010)
